Laboratory results reported in ChEMBL document CHEMBL1125933, “Arocalciferols: synthesis and biological evaluation of aromatic side-chain analogues of 1 alpha,25-dihydroxyvitamin D3(1a)” (1991).

Experiments:
[1] = species: Homo sapiens; assay: Inhibitory effect (10e-6 M) on the 25-hydroxyvitamin D3-1-hydroxylase activity
[2] = species: Homo sapiens; assay: 25-hydroxyvitamin D3-1-hydroxylase activity (10e-6 M) was measured as %control
[3] = test system: Gallus gallus; assay: Effect on bone calcium mobilization was measured in vivo, in the vitamin D deficient chick; format: functional, Bone element; design: reference not given here
[4] = test system: Gallus gallus; assay: Effect on intestinal calcium absorption was measured in vivo, in the vitamin D deficient chick; format: functional; design: reference not given here
[5] = biological target: T1, Vitamin D-binding protein (Homo sapiens) (UniProt P02774); assay: Relative competitive index for binding to vitamin D binding protein
T1 sequence (whole entry): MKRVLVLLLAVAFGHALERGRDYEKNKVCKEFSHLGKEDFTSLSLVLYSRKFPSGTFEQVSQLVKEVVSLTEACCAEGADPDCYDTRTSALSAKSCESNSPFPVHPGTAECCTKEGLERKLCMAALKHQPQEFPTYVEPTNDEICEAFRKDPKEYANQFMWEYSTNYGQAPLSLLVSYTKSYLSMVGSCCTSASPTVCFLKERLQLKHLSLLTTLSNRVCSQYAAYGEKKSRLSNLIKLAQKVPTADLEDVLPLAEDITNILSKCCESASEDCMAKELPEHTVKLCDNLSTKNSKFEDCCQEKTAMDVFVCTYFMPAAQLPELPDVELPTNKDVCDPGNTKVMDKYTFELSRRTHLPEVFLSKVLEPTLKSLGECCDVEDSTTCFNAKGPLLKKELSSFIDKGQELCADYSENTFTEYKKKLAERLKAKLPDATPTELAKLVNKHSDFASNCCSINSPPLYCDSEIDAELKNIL

[6] = test system: Vitamin D3 receptor (Gallus gallus); assay: Relative competitive index values for binding to 1,25(OH)2D3 receptor of chick intestine
[7] = biological target: Vitamin D3 receptor (Homo sapiens) (UniProt P11473); assay: Relative competitive index values for binding to 1,25(OH)2D3 receptor of human HL-60 cells
[8] = species: Homo sapiens; assay: Inhibitory effect (10e-6 M) on the 25-OH-D3-1-hydroxylase activity; format: functional
[9] = species: Homo sapiens; assay: 25-OH-D3-1-hydroxylase activity (10e-6 M) was measured as %control; format: functional
[10] = biological target: Vitamin D3 receptor (Homo sapiens) (UniProt P11473); assay: Relative competitive index values for binding to 1,25(OH)2D3 receptor of human HL-60 cells; remark: listed apart in the source

Row | SMILES | Activity [1] | Control [2] | Ratio [3] | Ratio [4] | RCI [5] | RCI [6] | RCI [7] | Activity [8] | Control [9] | RCI [10]
1 | C=C1/C(=C\C=C2/CCC[C@]3(C)[C@@H]([C@H](C)CCCC(C)(C)O)CC[C@@H]23)C[C@@H](O)C[C@@H]1O | 2.1 pmol/10 min | 12% | – | – | – | – | – | – | – | –
2 | C=C1/C(=C\C=C2/CCC[C@]3(C)[C@@H]([C@H](C)Cc4cccc(C(C)(C)O)c4)CC[C@@H]23)C[C@@H](O)C[C@@H]1O | 17.2 pmol/10 min | 99% | 7.7 | 30.7 | 2 | 62 | 32 | – | – | –
3 | C=C1/C(=C\C=C2/CCC[C@]3(C)[C@@H]([C@H](C)Cc4cccc(O)c4)CC[C@@H]23)C[C@@H](O)C[C@@H]1O | 16.9 pmol/10 min | 97% | 1 | 0.28 | 980 | 28 | 27 | – | – | –
4 | C=C1/C(=C\C=C2/CCC[C@]3(C)[C@@H]([C@H](C)Cc4cccc(C)c4)CC[C@@H]23)C[C@@H](O)C[C@@H]1O | 16.7 pmol/10 min | 96% | 0.06 | 0.31 | – | 1.4 | 3.5 | – | – | –
5 | C=C1/C(=C\C=C2/CCC[C@]3(C)[C@@H]([C@H](C)Cc4ccc(O)cc4)CC[C@@H]23)C[C@@H](O)C[C@@H]1O | – | – | 0.08 | 0.04 | 1980 | 5 | – | 18.1 pmol/10 min | 104% | 12
